Values belong to the compound of their own block, whether it stands above or below them.
Tests used:
Assay in all cases: Caliper, Mobility shift assay off-chip
CAMK2D (human) = CAMK2D (human) (UniProt Q13557)
INSR (human) = INSR (human) (UniProt P06213)
CAMK2G (human) = CAMK2G (human) (UniProt Q13555)
CSNK1D (human) = CSNK1D (human) (UniProt P48730)
RPS6KA5 KD1 KD2 (human) = RPS6KA5 KD1 KD2 (human) (UniProt O75582)
PRKCQ (human) = PRKCQ (human) (UniProt Q04759)
PRKCB2 (human) = PRKCB2 (human) (UniProt P05771)
MAPKAPK5 (human) = MAPKAPK5 (human) (UniProt Q8IW41)
STK3 (human) = STK3 (human) (UniProt Q13188)
STK3 (human), sequence (Q13188 whole entry, looked up): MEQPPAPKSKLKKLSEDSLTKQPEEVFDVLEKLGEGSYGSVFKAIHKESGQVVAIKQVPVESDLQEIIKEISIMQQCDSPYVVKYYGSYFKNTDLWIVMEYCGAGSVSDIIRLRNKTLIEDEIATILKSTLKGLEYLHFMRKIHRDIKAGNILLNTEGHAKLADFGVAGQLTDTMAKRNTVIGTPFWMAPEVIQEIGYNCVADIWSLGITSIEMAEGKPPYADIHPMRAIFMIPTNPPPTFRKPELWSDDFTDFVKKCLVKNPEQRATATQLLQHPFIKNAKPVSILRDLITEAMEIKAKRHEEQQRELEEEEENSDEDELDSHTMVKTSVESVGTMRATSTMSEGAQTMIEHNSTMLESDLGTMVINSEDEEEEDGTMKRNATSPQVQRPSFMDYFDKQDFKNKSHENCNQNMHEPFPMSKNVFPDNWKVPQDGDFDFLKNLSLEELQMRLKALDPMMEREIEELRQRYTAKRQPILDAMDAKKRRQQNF

[1] = tested on: ABL1 (human), P00519 [H396P]
CAMK2B (human) = CAMK2B (human) (UniProt Q13554); settings: compound 0.1 µM
SGK1 (human) = SGK1 (human) (UniProt O00141)
SGK1 (human), sequence (O00141 whole entry, looked up): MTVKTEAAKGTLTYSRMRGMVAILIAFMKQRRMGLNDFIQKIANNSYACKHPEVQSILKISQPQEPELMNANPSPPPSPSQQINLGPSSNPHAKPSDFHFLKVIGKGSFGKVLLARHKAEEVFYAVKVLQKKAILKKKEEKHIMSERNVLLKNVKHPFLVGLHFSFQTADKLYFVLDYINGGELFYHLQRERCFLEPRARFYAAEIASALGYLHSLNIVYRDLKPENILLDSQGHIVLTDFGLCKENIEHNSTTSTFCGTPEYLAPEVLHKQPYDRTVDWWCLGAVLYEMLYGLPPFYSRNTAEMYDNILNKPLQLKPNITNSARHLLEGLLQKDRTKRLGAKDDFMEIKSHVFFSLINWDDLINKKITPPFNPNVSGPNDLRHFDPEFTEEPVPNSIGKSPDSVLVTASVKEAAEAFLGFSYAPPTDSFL

MAPK14 (human) = MAPK14 (human) (UniProt Q16539)
MAPK14 (human), sequence (Q16539 whole entry, looked up): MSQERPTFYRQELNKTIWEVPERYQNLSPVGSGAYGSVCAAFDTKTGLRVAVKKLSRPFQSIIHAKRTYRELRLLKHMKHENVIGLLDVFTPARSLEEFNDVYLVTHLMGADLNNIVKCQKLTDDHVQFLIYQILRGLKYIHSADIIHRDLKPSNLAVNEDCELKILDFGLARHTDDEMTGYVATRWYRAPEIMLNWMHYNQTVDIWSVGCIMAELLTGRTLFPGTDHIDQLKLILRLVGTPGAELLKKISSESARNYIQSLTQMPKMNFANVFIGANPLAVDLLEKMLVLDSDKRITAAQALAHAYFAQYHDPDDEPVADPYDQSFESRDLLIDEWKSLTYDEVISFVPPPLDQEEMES

CHEK2 (human) = CHEK2 (human) (UniProt O96017)
MAPK11 (human) = MAPK11 (human) (UniProt Q15759)
RPS6KB1 (human) = RPS6KB1 (human) (UniProt P23443)
SYK (human) = SYK (human) (UniProt P43405)
PRKACA (human) = PRKACA (human) (UniProt P17612)
BRSK1 (human) = BRSK1 (human) (UniProt Q8TDC3)
PRKCE (human) = PRKCE (human) (UniProt Q02156)
MAPK3 (human) = MAPK3 (human) (UniProt P27361)
FER (human) = FER (human) (UniProt P16591); settings: compound 0.1 µM
PIM1 (human) = PIM1 (human) (UniProt P11309)
PDGFRA (human) = PDGFRA (human) (UniProt P16234); settings: compound 0.1 µM
AURKB (human) = AURKB (human) (UniProt Q96GD4)
AURKB (human), sequence (Q96GD4 whole entry, looked up): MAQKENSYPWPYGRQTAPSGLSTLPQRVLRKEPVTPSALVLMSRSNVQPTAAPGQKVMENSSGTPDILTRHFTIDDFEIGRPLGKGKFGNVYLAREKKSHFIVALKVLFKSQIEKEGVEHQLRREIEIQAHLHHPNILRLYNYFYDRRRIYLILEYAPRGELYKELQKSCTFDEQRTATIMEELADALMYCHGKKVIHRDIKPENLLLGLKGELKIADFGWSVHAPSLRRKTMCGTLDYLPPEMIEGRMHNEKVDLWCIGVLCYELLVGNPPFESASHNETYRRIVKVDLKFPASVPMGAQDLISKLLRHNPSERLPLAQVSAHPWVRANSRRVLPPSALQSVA

RPS6KA2 KD1 KD2 (human) = RPS6KA2 KD1 KD2 (human) (UniProt Q15349)
MARK1 (human) = MARK1 (human) (UniProt Q9P0L2)
AURKC (human) = AURKC (human) (UniProt Q9UQB9)
AURKC (human), sequence (Q9UQB9 whole entry, looked up): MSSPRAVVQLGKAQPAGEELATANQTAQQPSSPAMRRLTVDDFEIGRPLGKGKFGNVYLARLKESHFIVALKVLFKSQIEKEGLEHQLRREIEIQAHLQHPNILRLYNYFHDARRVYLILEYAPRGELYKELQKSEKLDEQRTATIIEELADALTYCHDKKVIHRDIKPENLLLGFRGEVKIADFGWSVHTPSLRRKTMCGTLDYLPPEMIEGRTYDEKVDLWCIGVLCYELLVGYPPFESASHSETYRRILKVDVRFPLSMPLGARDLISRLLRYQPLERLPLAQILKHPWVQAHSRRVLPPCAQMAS

ABL1 (human) = ABL1 (human) (UniProt P00519)
IRAK4 (human) = IRAK4 (human) (UniProt Q9NWZ3)
PRKCZ (human) = PRKCZ (human) (UniProt Q05513)
PRKCZ (human), sequence (Q05513 whole entry, looked up): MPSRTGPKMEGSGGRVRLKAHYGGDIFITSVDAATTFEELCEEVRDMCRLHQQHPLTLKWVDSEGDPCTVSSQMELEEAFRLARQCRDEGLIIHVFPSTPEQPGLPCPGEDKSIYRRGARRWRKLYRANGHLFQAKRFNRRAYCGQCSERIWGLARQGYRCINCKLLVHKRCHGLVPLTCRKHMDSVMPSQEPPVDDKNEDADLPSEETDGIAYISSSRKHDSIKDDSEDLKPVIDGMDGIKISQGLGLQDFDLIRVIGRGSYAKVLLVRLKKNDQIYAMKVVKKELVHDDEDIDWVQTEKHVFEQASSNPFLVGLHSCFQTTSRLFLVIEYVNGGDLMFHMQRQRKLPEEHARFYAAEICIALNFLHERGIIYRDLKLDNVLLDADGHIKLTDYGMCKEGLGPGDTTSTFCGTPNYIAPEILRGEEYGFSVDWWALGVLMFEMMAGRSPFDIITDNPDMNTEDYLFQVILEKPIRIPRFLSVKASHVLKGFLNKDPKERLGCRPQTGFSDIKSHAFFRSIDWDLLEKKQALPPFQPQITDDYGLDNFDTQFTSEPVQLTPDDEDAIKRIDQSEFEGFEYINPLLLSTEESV

PRKD2 (human) = PRKD2 (human) (UniProt Q9BZL6)
MAPKAPK2 (human) = MAPKAPK2 (human) (UniProt P49137)
AKT2 (human) = AKT2 (human) (UniProt P31751)

INSR (human), sequence (P06213 whole entry, looked up): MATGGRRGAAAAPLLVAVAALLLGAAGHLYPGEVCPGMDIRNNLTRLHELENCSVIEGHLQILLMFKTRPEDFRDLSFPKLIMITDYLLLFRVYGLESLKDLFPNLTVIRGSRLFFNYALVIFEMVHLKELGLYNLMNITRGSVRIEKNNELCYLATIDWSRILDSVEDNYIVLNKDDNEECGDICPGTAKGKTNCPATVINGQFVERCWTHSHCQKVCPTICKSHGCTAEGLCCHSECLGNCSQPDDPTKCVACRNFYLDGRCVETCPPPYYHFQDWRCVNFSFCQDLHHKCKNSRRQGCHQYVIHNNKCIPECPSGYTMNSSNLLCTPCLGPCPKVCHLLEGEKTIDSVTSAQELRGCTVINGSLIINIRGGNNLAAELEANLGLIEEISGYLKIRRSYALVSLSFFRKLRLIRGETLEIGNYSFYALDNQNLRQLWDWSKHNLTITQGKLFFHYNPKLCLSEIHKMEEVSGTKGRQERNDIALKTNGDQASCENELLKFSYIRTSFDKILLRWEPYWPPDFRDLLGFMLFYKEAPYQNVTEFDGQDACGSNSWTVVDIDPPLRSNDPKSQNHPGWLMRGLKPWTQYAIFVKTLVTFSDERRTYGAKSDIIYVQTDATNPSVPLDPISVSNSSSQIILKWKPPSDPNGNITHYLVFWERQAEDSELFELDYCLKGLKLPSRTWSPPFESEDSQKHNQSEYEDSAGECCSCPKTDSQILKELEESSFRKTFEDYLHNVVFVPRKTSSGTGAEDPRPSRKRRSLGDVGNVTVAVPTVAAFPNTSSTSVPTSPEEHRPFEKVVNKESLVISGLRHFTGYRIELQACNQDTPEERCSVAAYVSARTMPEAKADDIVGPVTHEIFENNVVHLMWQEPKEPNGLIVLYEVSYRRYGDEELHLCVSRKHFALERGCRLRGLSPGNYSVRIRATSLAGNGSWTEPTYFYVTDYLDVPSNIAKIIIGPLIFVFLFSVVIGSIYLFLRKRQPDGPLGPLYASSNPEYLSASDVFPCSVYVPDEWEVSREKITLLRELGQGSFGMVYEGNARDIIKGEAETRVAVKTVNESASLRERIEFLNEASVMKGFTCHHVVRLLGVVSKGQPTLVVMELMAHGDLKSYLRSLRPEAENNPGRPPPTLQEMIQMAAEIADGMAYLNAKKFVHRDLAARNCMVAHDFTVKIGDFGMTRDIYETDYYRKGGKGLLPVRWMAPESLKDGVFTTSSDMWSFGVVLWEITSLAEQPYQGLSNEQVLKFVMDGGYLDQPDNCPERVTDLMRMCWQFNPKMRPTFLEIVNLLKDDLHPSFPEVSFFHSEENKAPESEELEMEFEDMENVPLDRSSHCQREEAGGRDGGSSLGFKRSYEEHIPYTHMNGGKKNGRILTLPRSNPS
CSNK1D (human), sequence (P48730 whole entry, looked up): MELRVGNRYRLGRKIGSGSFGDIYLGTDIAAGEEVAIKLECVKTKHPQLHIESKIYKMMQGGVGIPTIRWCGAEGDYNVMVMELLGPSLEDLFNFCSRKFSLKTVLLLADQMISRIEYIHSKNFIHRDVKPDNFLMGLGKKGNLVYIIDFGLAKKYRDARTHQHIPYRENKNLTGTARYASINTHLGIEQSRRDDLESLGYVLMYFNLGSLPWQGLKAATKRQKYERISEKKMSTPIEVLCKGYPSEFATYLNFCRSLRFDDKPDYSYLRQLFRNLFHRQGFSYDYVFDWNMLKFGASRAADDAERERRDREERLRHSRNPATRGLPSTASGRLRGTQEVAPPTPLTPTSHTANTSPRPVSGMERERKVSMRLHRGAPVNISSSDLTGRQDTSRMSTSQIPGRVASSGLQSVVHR
CAMK2G (human), sequence (Q13555 whole entry, looked up): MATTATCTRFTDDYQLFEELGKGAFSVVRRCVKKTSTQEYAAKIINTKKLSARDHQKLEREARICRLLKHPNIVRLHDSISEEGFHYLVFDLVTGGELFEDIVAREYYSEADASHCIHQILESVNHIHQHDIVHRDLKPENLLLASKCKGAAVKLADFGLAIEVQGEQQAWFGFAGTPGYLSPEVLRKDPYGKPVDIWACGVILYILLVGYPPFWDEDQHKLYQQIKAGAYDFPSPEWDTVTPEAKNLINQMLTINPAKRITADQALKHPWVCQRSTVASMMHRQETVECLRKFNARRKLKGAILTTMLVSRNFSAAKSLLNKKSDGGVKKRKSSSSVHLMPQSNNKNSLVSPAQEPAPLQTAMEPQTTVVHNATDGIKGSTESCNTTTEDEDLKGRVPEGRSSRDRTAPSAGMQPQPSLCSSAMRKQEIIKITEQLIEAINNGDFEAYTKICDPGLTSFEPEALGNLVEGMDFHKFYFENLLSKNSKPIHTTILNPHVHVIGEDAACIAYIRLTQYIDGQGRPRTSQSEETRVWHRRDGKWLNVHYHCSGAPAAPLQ

inhibition (CAMK2D (human); compound 0.1 µM): -16.1%
inhibition (CAMK2D (human); compound 1.0 µM): -3.6%
inhibition (INSR (human); compound 0.1 µM): 1.4%
inhibition (INSR (human); compound 1.0 µM): 3.5%
inhibition (CAMK2G (human); compound 0.1 µM): -0.2%
inhibition (CAMK2G (human); compound 1.0 µM): -1.5%
inhibition (CSNK1D (human); compound 0.1 µM): 7.8%
inhibition (CSNK1D (human); compound 1.0 µM): 8.9%
inhibition (RPS6KA5 KD1 KD2 (human); compound 0.1 µM): -3.5%
inhibition (RPS6KA5 KD1 KD2 (human); compound 1.0 µM): -7.4%
inhibition (PRKCQ (human); compound 0.1 µM): -11.5%
inhibition (PRKCQ (human); compound 1.0 µM): -19.7%
inhibition (PRKCB2 (human); compound 0.1 µM): -4.2%
inhibition (PRKCB2 (human); compound 1.0 µM): -10.6%
inhibition (MAPKAPK5 (human); compound 0.1 µM): -20.9%
inhibition (MAPKAPK5 (human); compound 1.0 µM): 4.4%
inhibition (STK3 (human); compound 0.1 µM): 3.4%
inhibition (STK3 (human); compound 1.0 µM): 0.7%
inhibition ([1]; compound 0.1 µM): 10.6%
inhibition ([1]; compound 1.0 µM): 13.9%
inhibition (CAMK2B (human)): 20.2%
inhibition (SGK1 (human); compound 0.1 µM): 1.7%
inhibition (SGK1 (human); compound 1.0 µM): -6.4%
inhibition (MAPK14 (human); compound 0.1 µM): 5.3%
inhibition (MAPK14 (human); compound 1.0 µM): -2.7%
inhibition (CHEK2 (human); compound 0.1 µM): -0.4%
inhibition (CHEK2 (human); compound 1.0 µM): 4.5%
inhibition (MAPK11 (human); compound 0.1 µM): -11%
inhibition (MAPK11 (human); compound 1.0 µM): -1.8%
inhibition (RPS6KB1 (human); compound 0.1 µM): -19.5%
inhibition (RPS6KB1 (human); compound 1.0 µM): -2.1%
inhibition (SYK (human); compound 0.1 µM): 1.2%
inhibition (SYK (human); compound 1.0 µM): -1.7%
inhibition (PRKACA (human); compound 0.1 µM): -13.6%
inhibition (PRKACA (human); compound 1.0 µM): 2.4%
inhibition (BRSK1 (human); compound 0.1 µM): -11.7%
inhibition (BRSK1 (human); compound 1.0 µM): 0.3%
inhibition (PRKCE (human); compound 0.1 µM): 6.5%
inhibition (PRKCE (human); compound 1.0 µM): 1.1%
inhibition (MAPK3 (human); compound 0.1 µM): -10.8%
inhibition (MAPK3 (human); compound 1.0 µM): -1.3%
inhibition (FER (human)): -6.8%
inhibition (PIM1 (human); compound 0.1 µM): -3.6%
inhibition (PIM1 (human); compound 1.0 µM): -16.7%
inhibition (PDGFRA (human)): -13%
inhibition (AURKB (human); compound 0.1 µM): 10.5%
inhibition (AURKB (human); compound 1.0 µM): 34.7%
inhibition (RPS6KA2 KD1 KD2 (human); compound 0.1 µM): 6.3%
inhibition (RPS6KA2 KD1 KD2 (human); compound 1.0 µM): 8.8%
inhibition (MARK1 (human); compound 0.1 µM): 1.2%
inhibition (MARK1 (human); compound 1.0 µM): -13.9%
inhibition (AURKC (human); compound 0.1 µM): 4.3%
inhibition (AURKC (human); compound 1.0 µM): 55.5%
inhibition (ABL1 (human); compound 0.1 µM): 0.2%
inhibition (ABL1 (human); compound 1.0 µM): 11.6%
inhibition (IRAK4 (human); compound 0.1 µM): -12%
inhibition (IRAK4 (human); compound 1.0 µM): 4.2%
inhibition (PRKCZ (human); compound 0.1 µM): 3.2%
inhibition (PRKCZ (human); compound 1.0 µM): 6.8%
inhibition (PRKD2 (human); compound 0.1 µM): -8.3%
inhibition (PRKD2 (human); compound 1.0 µM): -3.5%
inhibition (MAPKAPK2 (human); compound 0.1 µM): -14.7%
inhibition (MAPKAPK2 (human); compound 1.0 µM): -4.4%
inhibition (AKT2 (human); compound 0.1 µM): -0.1%
inhibition (AKT2 (human); compound 1.0 µM): -0.5%
Compound: Cn1cc(-c2cnc3ccc4ccc(CS(=O)(=O)CCc5ccccn5)cc4c(=O)c3c2)cn1

inhibition (CAMK2D (human); compound 0.1 µM): 32%
inhibition (CAMK2D (human); compound 1.0 µM): 15.1%
inhibition (INSR (human); compound 0.1 µM): -128%
inhibition (INSR (human); compound 1.0 µM): -2%
inhibition (CAMK2G (human); compound 0.1 µM): -7.4%
inhibition (CSNK1D (human); compound 0.1 µM): 20.4%
inhibition (CSNK1D (human); compound 1.0 µM): 7.4%
inhibition (RPS6KA5 KD1 KD2 (human); compound 0.1 µM): 0.7%
inhibition (RPS6KA5 KD1 KD2 (human); compound 1.0 µM): -0.4%
inhibition (PRKCQ (human); compound 0.1 µM): -15.1%
inhibition (PRKCQ (human); compound 1.0 µM): 2.1%
inhibition (PRKCB2 (human); compound 0.1 µM): -4.3%
inhibition (PRKCB2 (human); compound 1.0 µM): -2.5%
inhibition (MAPKAPK5 (human); compound 0.1 µM): -4.3%
inhibition (MAPKAPK5 (human); compound 1.0 µM): -1.1%
inhibition (STK3 (human); compound 0.1 µM): -0.1%
inhibition (STK3 (human); compound 1.0 µM): -2.7%
inhibition ([1]; compound 0.1 µM): 14.9%
inhibition (CAMK2B (human)): 2.1%
inhibition (SGK1 (human); compound 0.1 µM): 7.2%
inhibition (SGK1 (human); compound 1.0 µM): 9.6%
inhibition (MAPK14 (human); compound 0.1 µM): 3.3%
inhibition (MAPK14 (human); compound 1.0 µM): -2.7%
inhibition (CHEK2 (human); compound 0.1 µM): 4.63%
inhibition (CHEK2 (human); compound 1.0 µM): -0.5%
inhibition (MAPK11 (human); compound 0.1 µM): -1.4%
inhibition (RPS6KB1 (human); compound 0.1 µM): -2.7%
inhibition (RPS6KB1 (human); compound 1.0 µM): 0%
inhibition (SYK (human); compound 0.1 µM): 13.6%
inhibition (SYK (human); compound 1.0 µM): 0.3%
inhibition (PRKACA (human); compound 0.1 µM): -1.4%
inhibition (PRKACA (human); compound 1.0 µM): 0.3%
inhibition (BRSK1 (human); compound 0.1 µM): 2%
inhibition (BRSK1 (human); compound 1.0 µM): 5.2%
inhibition (PRKCE (human); compound 0.1 µM): -9.1%
inhibition (PRKCE (human); compound 1.0 µM): -5.1%
inhibition (MAPK3 (human); compound 0.1 µM): 7.2%
inhibition (MAPK3 (human); compound 1.0 µM): 2.8%
inhibition (FER (human)): 1.2%
inhibition (PIM1 (human); compound 0.1 µM): -4.7%
inhibition (PIM1 (human); compound 1.0 µM): -8.3%
inhibition (PDGFRA (human)): 17.5%
inhibition (AURKB (human); compound 0.1 µM): 34.7%
inhibition (RPS6KA2 KD1 KD2 (human); compound 0.1 µM): -1.6%
inhibition (RPS6KA2 KD1 KD2 (human); compound 1.0 µM): -5.3%
inhibition (MARK1 (human); compound 0.1 µM): -3.9%
inhibition (MARK1 (human); compound 1.0 µM): 33.5%
inhibition (AURKC (human); compound 0.1 µM): 20.9%
inhibition (ABL1 (human); compound 0.1 µM): 23.1%
inhibition (ABL1 (human); compound 1.0 µM): 61.5%
inhibition (IRAK4 (human); compound 0.1 µM): 31.2%
inhibition (IRAK4 (human); compound 1.0 µM): 40.2%
inhibition (PRKCZ (human); compound 0.1 µM): -8%
inhibition (PRKCZ (human); compound 1.0 µM): 1.3%
inhibition (PRKD2 (human); compound 0.1 µM): -3.8%
inhibition (PRKD2 (human); compound 1.0 µM): 15%
inhibition (MAPKAPK2 (human); compound 0.1 µM): 7.6%
inhibition (MAPKAPK2 (human); compound 1.0 µM): 1.3%
inhibition (AKT2 (human); compound 0.1 µM): 0.7%
inhibition (AKT2 (human); compound 1.0 µM): 1.9%
Compound: Cn1cc(-c2cnc3ccc4ccc(CS(=O)(=O)NCC5CCCCN5)cc4c(=O)c3c2)cn1 (stereo not given)

Source: the kinase profiling compilation of Christmann-Franck et al. (2016)
